The text below walks through data of ChEMBL document CHEMBL1201862, “PubChem BioAssay data set” (2004).

Test systems include 786-0; ACHN; CCRF-CEM; COLO 205; EKVX; HOP-62; HOP-92; OVCAR-3; RXF 393; SK-MEL-28; SK-OV-3; SNB-19; SNB-75; UACC-62; UO-31; Hs-578T; MDA-MB-231; PC-3.
Common to all, as to test: NCI tumour cell line growth inhibition, 48 h

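Five compound concentrations were applied to cells in 96-well plates for 48 hours; endpoints were derived by simple linear interpolation of the resulting dose-response curve. GI50 is the concentration that inhibits growth by half.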 The source made the active and inactive calls. Cut-off read from the data, not from the text of the source: active = GI50 up to about 1.1 µM and inactive = higher. Where a SMILES comes first, the peptide text is derived from it. The star is where a group is joined. Cbz = O=C(OCc1ccccc1)*

On to `CCOC(=O)c1oc2c(OC)ccc3c2c1CCC3`, for which the GI50 was > 100 µM (inactive) with 786-0; > 100 µM (inactive) with ACHN; 73.3 µM (inactive) in the test on CCRF-CEM; > 100 µM (inactive) with COLO 205; > 100 µM (inactive) with EKVX; > 100 µM (inactive) with HOP-62. The GI50 in the test on HOP-92 is 86.9 µM (inactive); in the test with OVCAR-3, > 100 µM (inactive); with RXF 393, > 100 µM (inactive); in the test on SK-MEL-28, > 100 µM (inactive); in the test with SK-OV-3, > 100 µM (inactive); with SNB-19, > 100 µM (inactive). Besides, the GI50 with SNB-75 is 77.6 µM (inactive); in the test with UACC-62 it was > 100 µM (inactive); in the test on UO-31 it was 33.6 µM (inactive).

Consider `N#C/C(=C\c1ccc(O)c(O)c1)C(=O)NC1CCC(CC2CCC(NC(=O)/C(C#N)=C/c3ccc(O)c(O)c3)CC2)CC1` (stereo not drawn), for which the GI50 with 786-0 was 1.27 µM (inactive); in the test with ACHN it was 0.718 µM (active); in the test on CCRF-CEM, 0.293 µM (active); in the test on COLO 205 it was 1.12 µM (inactive); with EKVX it was 3.48 µM (inactive); in the test with HOP-62, 1.89 µM (inactive). Besides, the GI50 is 1.55 µM (inactive) in the test on HOP-92; 1.37 µM (inactive) in the test on OVCAR-3; 2.29 µM (inactive) in the test on RXF 393; 3.22 µM (inactive) with SK-MEL-28; 3.82 µM (inactive) in the test with SK-OV-3; 3.52 µM (inactive) with SNB-19. Besides, the GI50 in the test with SNB-75 was 0.263 µM (active); in the test with UACC-62 it was 1.59 µM (inactive); in the test with UO-31, 1.77 µM (inactive).

For `CCOC(=O)c1cccnc1C(OC(C)=O)OC(C)=O`, the GI50 was > 100 µM (inactive) in the test on 786-0; 74.8 µM (inactive) with ACHN; > 100 µM (inactive) in the test with CCRF-CEM; > 100 µM (inactive) in the test on COLO 205; > 100 µM (inactive) in the test with EKVX; > 100 µM (inactive) with HOP-62. In addition, the GI50 in the test with HOP-92, in the test with OVCAR-3, in the test with RXF 393, in the test on SK-MEL-28, in the test on SK-OV-3 and in the test with SNB-19 was > 100 µM (inactive) in each case. Also, the GI50 in the test on SNB-75, in the test with UACC-62 and in the test on UO-31 was > 100 µM (inactive) throughout.

For the molecule `O=C1CCC(=O)C(C(=O)CCC(=O)Nc2cccc(Cl)c2)C1` (stereo not drawn), the GI50 with 786-0, in the test with ACHN, in the test on CCRF-CEM, in the test on COLO 205, in the test with EKVX and in the test with HOP-62 was > 100 µM (inactive) throughout. Further, the GI50 with HOP-92, in the test on OVCAR-3, with RXF 393, with SK-OV-3, with SNB-19 and with SNB-75 was > 100 µM (inactive) each time. Besides, the GI50 with UACC-62 and with UO-31 was > 100 µM (inactive) in each case.

Turning to `C/C=C/C1=C(Cl)C(=O)[C@@H](Cl)[C@@]1(O)C(=O)OC` [(+)-CRYPTOSPORIPSIN], the GI50 in the test with 786-0 was 4.94 µM (inactive); in the test on ACHN, 2.41 µM (inactive); with CCRF-CEM it was 0.912 µM (active); with COLO 205 it was 1.5 µM (inactive); with EKVX, 3.65 µM (inactive); in the test on HOP-62 it was 1.52 µM (inactive). Besides, the GI50 was 2.25 µM (inactive) in the test on HOP-92; 2.45 µM (inactive) in the test on OVCAR-3; 2.13 µM (inactive) with RXF 393; 7.66 µM (inactive) in the test on SK-MEL-28; 15.1 µM (inactive) with SK-OV-3; 3.8 µM (inactive) in the test with SNB-19. The GI50 with SNB-75 is 7.38 µM (inactive); in the test on UACC-62, 1.65 µM (inactive); with UO-31 it was 5.61 µM (inactive).

Consider `COc1ccc(C2S/C(=C\c3ccccc3O)C(=O)N2NC(=O)Cc2ccccc2)cc1` (stereo not drawn), for which the GI50 with 786-0 was > 100 µM (inactive); in the test with ACHN, > 100 µM (inactive); with CCRF-CEM, 48.5 µM (inactive); in the test with COLO 205, > 100 µM (inactive); in the test with HOP-62, > 100 µM (inactive); in the test on HOP-92 it was > 100 µM (inactive). Moreover, the GI50 in the test on RXF 393 is 61.7 µM (inactive); in the test on SK-MEL-28 it was 40.3 µM (inactive); in the test on SK-OV-3, > 100 µM (inactive); in the test on SNB-75, 57.3 µM (inactive); in the test with UACC-62, 78.7 µM (inactive); with UO-31, > 100 µM (inactive).

On to `CCOC(=O)C(CC(=O)OC)NC(=O)C(CC(=O)OC)NC(=O)C(CC(=O)OC)NC(=O)C(CC(=O)OC)NC(=O)OCc1ccccc1` (stereo not drawn) (Cbz-D(OMe)D(OMe)D(OMe)D(OMe)-OEt; configuration not given here), for which the GI50 in the test on 786-0, in the test with ACHN, in the test on COLO 205, with EKVX, with HOP-62 and with HOP-92 was > 100 µM (inactive) throughout. For the same molecule, the GI50 with Hs-578T, in the test with MDA-MB-231, with PC-3, in the test on RXF 393, with SK-MEL-28 and in the test with SNB-19 was > 100 µM (inactive) throughout. The GI50 in the test on SNB-75, with UACC-62 and with UO-31 was > 100 µM (inactive) in each case.

In the case of `CCOC(=O)C1S/C(=N\c2ccccc2)N=C1C` (stereo not drawn), the GI50 with 786-0 was 77.8 µM (inactive); in the test on ACHN, 39.7 µM (inactive); in the test on COLO 205, > 100 µM (inactive); in the test on EKVX, 64.1 µM (inactive); in the test with HOP-62, > 100 µM (inactive); in the test on HOP-92, 22.3 µM (inactive). The GI50 in the test on OVCAR-3 was 97.1 µM (inactive); in the test with RXF 393, > 100 µM (inactive); in the test on SK-MEL-28, > 100 µM (inactive); in the test with SNB-19 it was > 100 µM (inactive); with SNB-75, 26.9 µM (inactive); with UO-31 it was 53.3 µM (inactive).

On to `Cc1cc(NS(=O)(=O)c2ccc(Nc3c4ccccc4nc4c(C(=O)N5CCN(CCOS(C)(=O)=O)CC5)cccc34)cc2)no1`, for which the GI50 is > 100 µM (inactive) in the test with 786-0; > 100 µM (inactive) in the test on ACHN; 43.4 µM (inactive) in the test with CCRF-CEM; > 100 µM (inactive) with COLO 205; > 100 µM (inactive) with HOP-62; > 100 µM (inactive) in the test on HOP-92. Further, the GI50 with OVCAR-3, in the test with RXF 393, in the test on SK-MEL-28, in the test with SK-OV-3, with SNB-19 and with SNB-75 was > 100 µM (inactive) in each case. The GI50 in the test with UACC-62 and in the test with UO-31 was > 100 µM (inactive) throughout.

With `CCCCCCCCCCC(O)CCCCCCC(=O)O` (stereo not drawn), the GI50 in the test with 786-0 was 24.5 µM (inactive); in the test with ACHN, 22.5 µM (inactive); in the test on CCRF-CEM, 27.5 µM (inactive); with COLO 205 it was 15.7 µM (inactive); with EKVX, 31.7 µM (inactive); with HOP-62, 35.9 µM (inactive). The GI50 in the test with HOP-92 was 18.1 µM (inactive); with OVCAR-3 it was 19.9 µM (inactive); in the test with RXF 393 it was 34.1 µM (inactive); with SK-MEL-28 it was 45.8 µM (inactive); in the test with SK-OV-3, 78.3 µM (inactive); with SNB-19 it was 48.8 µM (inactive). Moreover, the GI50 is 42.5 µM (inactive) in the test on SNB-75, 19.8 µM (inactive) in the test on UACC-62 and 29.9 µM (inactive) in the test with UO-31.

As for `O=C(OCc1ccccc1)N1N=NC2C3CC(OCc4ccccc4)(OCc4ccccc4)C(O3)C21` (stereo not drawn), the GI50 in the test on 786-0 is 29.1 µM (inactive); in the test on ACHN, 29.6 µM (inactive); with CCRF-CEM, 21.3 µM (inactive); in the test with COLO 205 it was 23.1 µM (inactive); in the test with HOP-62 it was 24.7 µM (inactive); with HOP-92 it was 12.6 µM (inactive). For the same molecule, the GI50 with OVCAR-3 was 16.6 µM (inactive); in the test with RXF 393 it was 9.64 µM (inactive); in the test with SK-MEL-28 it was 21.3 µM (inactive); in the test on SK-OV-3 it was 99.3 µM (inactive); with SNB-75, 24.3 µM (inactive); with UACC-62 it was 17.1 µM (inactive). In addition, the GI50 in the test with UO-31 was 4.65 µM (inactive).

Turning to `COc1ccc(/C=N/NC(=O)CSc2nc(-c3ccccc3)c(-c3ccccc3)[nH]2)cc1OC`, the GI50 is 28.7 µM (inactive) in the test with 786-0; 31.3 µM (inactive) in the test with ACHN; 34.7 µM (inactive) with CCRF-CEM; 21.2 µM (inactive) in the test on COLO 205; 31 µM (inactive) in the test on EKVX; 39.3 µM (inactive) in the test on HOP-62. Moreover, the GI50 was 42.1 µM (inactive) in the test with HOP-92; 17.1 µM (inactive) with OVCAR-3; 20.1 µM (inactive) in the test on RXF 393; 41 µM (inactive) in the test with SK-MEL-28; 26.4 µM (inactive) with SK-OV-3; 34.5 µM (inactive) in the test with SNB-19. For the same molecule, the GI50 in the test on SNB-75 was 29.9 µM (inactive); in the test on UACC-62, 23.5 µM (inactive); in the test with UO-31 it was 25.5 µM (inactive).

Take `Cc1c(/C=N/N=C/c2[nH]c(C(=O)OC(C)(C)C)c(C)c2C)[nH]c(C(=O)OC(C)(C)C)c1C`: the GI50 in the test with 786-0 was 50.8 µM (inactive); in the test with CCRF-CEM, 70.1 µM (inactive); in the test on COLO 205 it was > 100 µM (inactive); in the test with EKVX, > 100 µM (inactive); in the test on HOP-62 it was > 100 µM (inactive); in the test on HOP-92 it was 67.8 µM (inactive). For the same molecule, the GI50 is > 100 µM (inactive) with OVCAR-3; > 100 µM (inactive) with RXF 393; > 100 µM (inactive) in the test with SK-OV-3; > 100 µM (inactive) in the test with SNB-19; 33 µM (inactive) in the test on SNB-75; > 100 µM (inactive) in the test with UACC-62. Also, the GI50 in the test on UO-31 is > 100 µM (inactive).
